Laboratory results as given in patent publication US9718828B2 (MERCK SHARP & DOHME CORP., priority 2011, dated 2017).
Structures can show the parent of a compound that is named as a salt.

Molecular target: Btk enzyme (His-Btk) (Homo sapiens (Human), UniProt Q06187)
Test: Btk enzyme activity, IMAP fluorescence polarization assay (Assay Method A)
Details: not given

Sequence of Btk enzyme (His-Btk) (Q06187 whole entry): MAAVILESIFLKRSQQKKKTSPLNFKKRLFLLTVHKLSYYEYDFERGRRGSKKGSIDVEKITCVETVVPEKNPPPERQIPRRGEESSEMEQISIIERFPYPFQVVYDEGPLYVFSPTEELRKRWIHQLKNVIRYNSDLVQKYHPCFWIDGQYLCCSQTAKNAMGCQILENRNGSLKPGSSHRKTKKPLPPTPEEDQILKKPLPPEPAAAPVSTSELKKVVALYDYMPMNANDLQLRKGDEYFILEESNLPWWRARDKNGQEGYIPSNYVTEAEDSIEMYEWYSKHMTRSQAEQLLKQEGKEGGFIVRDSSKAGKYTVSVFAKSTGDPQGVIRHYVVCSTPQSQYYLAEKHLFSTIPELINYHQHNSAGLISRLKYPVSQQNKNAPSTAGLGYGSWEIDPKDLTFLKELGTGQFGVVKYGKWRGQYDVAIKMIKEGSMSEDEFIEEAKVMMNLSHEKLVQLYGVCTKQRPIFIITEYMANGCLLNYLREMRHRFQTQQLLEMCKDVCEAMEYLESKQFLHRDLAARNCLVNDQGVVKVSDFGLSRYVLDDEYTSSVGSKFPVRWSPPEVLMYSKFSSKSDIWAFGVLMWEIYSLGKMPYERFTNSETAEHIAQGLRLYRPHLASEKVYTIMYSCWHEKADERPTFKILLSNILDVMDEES

EC50, 100 to 1000 nM:
CS(=O)(=O)N1CCC[C@@H](c2nc(-c3ccc(C(=O)Nc4ccccn4)cc3)c3c(N)nccn23)C1 [Example 49, (R)-4-(8-amino-3-(1-(methylsulfonyl)piperidin-3-yl)imidazo[1,5-a]pyrazin-1-yl)-N-(pyridin-2-yl)benzamide]

EC50, < 10 nM:
CO[C@H]1CC[C@@H](c2nc(-c3ccc(C(=O)Nc4cc(C#N)ccn4)cc3)c3c(N)nccn32)CC1 [Example 41, 4-(8-amino-3-((cis)-4-methoxycyclohexyl)imidazo [1,5-a]pyrazin-1-yl)-N-(4-cyanopyridin-2-yl)benzamide]
N#Cc1ccnc(NC(=O)c2ccc(-c3nc(C4CCCC4)n4ccnc(N)c34)cc2)c1 [Example 44, 4-(8-amino-3-cyclopentylimidazo[1,5-a]pyrazin-1-yl)-N-(4-cyanopyridin-2-yl)benzamide, TFA salt]
CCC(=O)N1CCC[C@@H](c2nc(-c3ccc(C(=O)Nc4ccccn4)cc3)c3c(N)nccn23)C1 [Example 46, (R)-4-(8-amino-3-(1-propionylpiperidin-3-yl)imidazo[1,5-a]pyrazin-1-yl)-N-(pyridin-2-yl)benzamide]
COCCC(=O)N1CCC[C@@H](c2nc(-c3ccc(C(=O)Nc4ccccn4)cc3)c3c(N)nccn23)C1 [Example 50, (R)-4-(8-amino-3-(1-(3-methoxypropanoyl)piperidin-3-yl)imidazo[1,5-a]pyrazin-1-yl)-N-(pyridin-2-yl)benzamide]
Nc1nccn2c([C@@H]3CCCN(C(=O)C4CC4)C3)nc(-c3ccc(C(=O)Nc4ccccn4)cc3)c12 [Example 52, (R)-4-(8-amino-3-(1-(cyclopropanecarbonyl)piperidin-3-yl)imidazo[1,5-a]pyrazin-1-yl)-N-(pyridin-2-yl)benzamide]
Nc1nccn2c([C@@H]3CCCN(C(=O)C4CCC4)C3)nc(-c3ccc(C(=O)Nc4cc(C5CC5)ccn4)cc3)c12 [Example 59, (R)-4-(8-amino-3-(1-(cyclobutanecarbonyl)piperidin-3-yl)imidazo[1,5-a]pyrazin-1-yl)-N-(4-cyclopropylpyridin-2-yl)benzamide]
CCC(=O)N1CCC[C@@H](c2nc(-c3ccc(C(=O)Nc4cc(C5CC5)ccn4)cc3)c3c(N)nccn23)C1 [Example 60, (R)-4-(8-amino-3-(1-propionylpiperidin-3-yl)imidazo[1,5-a]pyrazin-1-yl)-N-(4-cyclopropylpyridin-2-yl)benzamide]

EC50, 10 to 100 nM:
CC1CCc2nc(NC(=O)c3ccc(-c4nc([C@H]5[C@@H]6COC[C@@H]65)n5ccnc(N)c45)cc3)sc2C1 (stereo partly drawn) [Example 32, 4-(8-amino-3-((1R,5S,6S)-3-oxabicyclo[3.1.0]hexan-6-yl)imidazo[1,5-a]pyrazin-1-yl)-N-(6-methyl-4,5,6,7-tetrahydrobenzo[d]thiazol-2-yl)benzamide, TFA salt]
N#Cc1ccnc(NC(=O)c2ccc(-c3nc(C4CCOC4)n4ccnc(N)c34)cc2)c1 (stereo not shown) [Example 33, 4-(8-amino-3-(tetrahydrofuran-3-yl)imidazo[1,5-a]pyrazin-1-yl)-N-(4-cyanopyridin-2-yl)benzamide]
CC1(C)CC(c2nc(-c3ccc(C(=O)Nc4ccccn4)cc3)c3c(N)nccn23)CCO1 (stereo not shown) [Example 35, 4-(8-amino-3-(2,2-dimethyltetrahydro-2H-pyran-4-yl)imidazo[1,5-a]pyrazin-1-yl)-N-(pyridin-2-yl)benzamide]
CC1(C)CC(c2nc(-c3ccc(C(=O)Nc4cc(C#N)ccn4)cc3)c3c(N)nccn23)CCO1 (stereo not shown) [Example 37, 4-(8-amino-3-(2,2-dimethyltetrahydro-2H-pyran-4-yl)imidazo[1,5-a]pyrazin-1-yl)-N-(4-cyanopyridin-2-yl)benzamide]
CCc1cnc(NC(=O)c2ccc(-c3nc([C@H]4CC[C@H](OC(C)=O)CC4)n4ccnc(N)c34)cc2)s1 [Example 38, (trans)-4-(8-amino-1-(4-(5-ethylthiazol-2-ylcarbamoyl)phenyl)imidazo [1,5-a]pyrazin-3-yl)cyclohexyl acetate]
CCc1cnc(NC(=O)c2ccc(-c3nc([C@H]4CC[C@@H](OC)CC4)n4ccnc(N)c34)cc2)s1 [Example 39, 4-(8-amino-3-((cis)-4-methoxycyclohexyl)imidazo [1,5-a]pyrazin-1-yl)-N-(5-ethylthiazol-2-yl)benzamide]
CN(C)CCCC(=O)N1CCC[C@@H](c2nc(-c3ccc(C(=O)Nc4ccccn4)cc3)c3c(N)nccn23)C1 [Example 51, (R)-4-(8-amino-3-(1-(4-(dimethylamino)butanoyl)piperi-din-3-yl)imidazo[1,5-a]pyrazin-1-yl)-N-(pyridin-2-yl)benzamide]
Nc1nccn2c([C@@H]3CCCN(C(=O)CO)C3)nc(-c3ccc(C(=O)Nc4ccccn4)cc3)c12 [Example 53, (R)-4-(8-amino-3-(1-(2-hydroxyacetyl)piperidin-3-yl)imidazo[1,5-a]pyrazin-1-yl)-N-(pyridin-2-yl)benzamide]
NCCCCC(=O)N1CCC[C@@H](c2nc(-c3ccc(C(=O)Nc4ccccn4)cc3)c3c(N)nccn23)C1 [Example 54, (R)-4-(8-amino-3-(1-(5-aminopentanoyl)piperidin-3-yl)imidazo[1,5-a]pyrazin-1-yl)-N-(pyridin-2-yl)benzamide]
Nc1nccn2c([C@@H]3CCCN(C(=O)[C@H]4CC[C@H](N)CC4)C3)nc(-c3ccc(C(=O)Nc4ccccn4)cc3)c12 [Example 55, 4-(8-amino-3-((R)-1-((trans)-4-aminocyclohexanecarbonyl)piperidin-3-yl)imidazo[1,5-a]pyrazin-1-yl)-N-(pyridin-2-yl)benzamide, TFA salt]
Nc1nccn2c([C@@H]3CCCN(C(=O)C4CCOC4)C3)nc(-c3ccc(C(=O)Nc4ccccn4)cc3)c12 (stereo partly drawn) [Example 56, 4-(8-amino-3-((3R)-1-(tetrahydrofuran-3-carbonyl)piperidin-3-yl)imidazo[1,5-a]pyrazin-1-yl)-N-(pyridin-2-yl)benzamide, TFA salt]
CO[C@@H](C)C(=O)N1CCC[C@@H](c2nc(-c3ccc(C(=O)Nc4ccccn4)cc3)c3c(N)nccn23)C1 [Example 57, 4-(8-amino-3-((R)-1-((S)-2-methoxypropanoyl)piperidin-3-yl)imidazo[1,5-a]pyrazin-1-yl)-N-(pyridin-2-yl)benzamide]
CC[C@H](C)C(=O)N1CCC[C@@H](c2nc(-c3ccc(C(=O)Nc4ccccn4)cc3)c3c(N)nccn23)C1 [Example 58, 4-(8-amino-3-((R)-1-((S)-2-methylbutanoyl)piperidin-3-yl)imidazo[1,5-a]pyrazin-1-yl)-N-(pyridin-2-yl)benzamide]

Same assay, conditions: read-out: EC50 Btk activity values - Assay Method A; IMAP-FP, 60 min pre-incubation, 5 μM ATP; class 100-1000 is given as ≧100 nM-<1 μM

EC50, < 10 nM:
CCCc1ccnc(NC(=O)c2ccc(-c3nc([C@H]4[C@@H]5COC[C@@H]54)n4ccnc(N)c34)cc2)c1 [Example 30, 4-(8-amino-3-((1R,5S,6S)-3-oxabicyc1o[3.1.0]hexan-6-yl)imidazo[1,5-a]pyrazin-1-yl)-N-(4-propylpyridin-2-yl)benzamide, TFA salt]
Nc1nccn2c([C@H]3[C@@H]4COC[C@@H]43)nc(-c3ccc(C(=O)Nc4cc(C(F)(F)F)ccn4)cc3)c12 [Example 31, 4-(8-amino-34(1R,5S,6S)-3-oxabicyclo[3.1.0]hexan-6-yl)imidazo[1,5-a]pyrazin-1-yl)-N-(4-(trifluoromethyl)pyridin-2-yl)benzamide, TFA salt]
CC1(C)CC(c2nc(-c3ccc(C(=O)Nc4cc(C(F)(F)F)ccn4)cc3)c3c(N)nccn23)CCO1 (stereo not shown) [Example 34, 4-(8-amino-3-(2,2-dimethyltetrahydro-2H-pyran-4-yl)imidazo[1,5-a]pyrazin-1-yl)-N-(4-(trifluoromethyl)pyridin-2-yl)benzamide]
CCCc1ccnc(NC(=O)c2ccc(-c3nc(C4CCOC(C)(C)C4)n4ccnc(N)c34)cc2)c1 (stereo not shown) [Example 36, 4-(8-amino-3-(2,2-dimethyltetrahydro-2H-pyran-4-yl)imidazo[1,5-a]pyrazin-1-yl)-N-(4-propylpyridin-2-yl)benzamide]
CO[C@H]1CC[C@@H](c2nc(-c3ccc(C(=O)Nc4cc(C(F)(F)F)ccn4)cc3)c3c(N)nccn32)CC1 [Example 40, 4-(8-amino-3-((cis)-4-methoxycyclohexyl)imidazo [1,5-a]pyrazin-1-yl)-N-(4-(trifluoromethyl)pyridin-2-yl)benzarnide]
CCCc1ccnc(NC(=O)c2ccc(-c3nc([C@H]4CC[C@@H](OC)CC4)n4ccnc(N)c34)cc2)c1 [Example 42, 4-(8-amino-3-((cis)-4-methoxycyclohexyl)imidazo [1,5-a]pyrazin-1-yl)-N-(4-propylpyridin-2-yl)benzamide]
Nc1nccn2c(C3CCCC3)nc(-c3ccc(C(=O)Nc4cc(C(F)(F)F)ccn4)cc3)c12 [Example 43, 4-(8-amino-3-cyclopentylimidazo[1,5-a]pyrazin-1-yl)-N-(4-(trifluoromethyl)pyridin-2-yl)benzamide, TFA salt]
Nc1nccn2c(C3CCCC3)nc(-c3ccc(C(=O)Nc4ccccn4)cc3)c12 [Example 45, 4-(8-amino-3-cyclopentylimidazo[1,5-a]pyrazin-1-yl)-N-(pyridin-2-yl)benzamide, TFA salt]
CCOC(=O)N1CCC[C@@H](c2nc(-c3ccc(C(=O)Nc4ccccn4)cc3)c3c(N)nccn23)C1 [Example 47, (R)-ethyl 3-(8-amino-1-(4-(pyridin-2-ylcarbamoyl)phenyl)imidazo[1,5-a]pyrazin-3-yl)piperidine-1-carboxylate]
CCNC(=O)N1CCC[C@@H](c2nc(-c3ccc(C(=O)Nc4ccccn4)cc3)c3c(N)nccn23)C1 [Example 48, (R)-3-(8-amino-1-(4-(pyridin-2-ylcarbamoyl)phenyl)imidazo[1,5-a]pyrazin-3-yl)-N-ethylpiperidine-1-carboxamide]
